The values below come from ChEMBL document CHEMBL5528050, “Discovery of a Novel Series of Homo sapiens Caseinolytic Protease P Agonists for Colorectal Adenocarcinoma Treatment via ATF3-Dependent Integrated Stress Response” (J Med Chem, 2024).

The source made the active and inactive calls. The rule behind the calls is not given here.

The test system of one data set is HCT-116. In words: Upregulation of ATF3 expression in human HCT-116 cells measured after 48 hrs by Western blot analysis. Format: functional, cell-based. On the technique in general: A western blot detects proteins with antibodies after separation by electrophoresis.
Data set [1] in a line: Oral bioavailability in Sprague-Dawley rat at 10 mg/kg by LC-MS/MS analysis. It is filed as ADME, organism-based. Conditions: in vivo.

On to `N#Cc1cccc(CN2CCC=C(C(=O)NCc3ccc(C(F)(F)F)cc3)C2)c1`, for which, in the data set on HCT-116, the result was Active. Also, the bioavailability in data set [1] was 54.2%.

By bioavailability is commonly meant the share of a dose that reaches the circulation, judged against a reference dose that is usually intravenous. Higher therefore signals good availability.
